Assay results taken from US20050239656A1, “Pyridine compounds or salts thereof and herbicides containing the same” (priority 2002, published 2005).

What was measured:
[1] = test system: redroot pigweed; test: Test Example 2: soil surface treatment, upland pot test; type: in vivo, Amaranthus retroflexus L.; settings: observed 20th to 28th day
Summary of the method: (§1)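 Sowing, then next-day soil-surface spray of formulated test compound (fixed a.i. amount, 1,500 L/ha spray volume); visual evaluation of growth inhibition, 0–100%, three to four weeks (days 20–28) after application.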

[2] = test system: prickly sida; test: as above; type: in vivo, Sida spinosa L.; settings: observed 20th to 28th day
Summary of the method: as §1

[3] = test system: rice; test: Test Example 1: foliage treatment, upland pot test; type: in vivo, Oryza sativa L.; settings: crop, active ingredient 500 g/ha, observed 18th to 23rd day, 0 = non-treated, 100 = complete kill
Summary of the method: (§2)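 Upland pot test, foliar. Soybean 0.1–0.4 / wheat 1.3–2.4 / rice 1.2–2.6 / barnyardgrass 1.3–2.8 leaf stage at spraying; 500 L/ha carrier, 0.1% (v/v) spreader. Visual % control, 0 untreated to 100 dead, days 18–23.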

[4] = test system: rice; test: Test Example 2: soil surface treatment, upland pot test; type: in vivo, Oryza sativa L.; settings: observed 20th to 28th day
Summary of the method: as §1

[5] = test system: velvetleaf; test: Test Example 1: foliage treatment, upland pot test; type: in vivo, Abutilon theophrasti MEDIC.; settings: active ingredient 500 g/ha, observed 18th to 23rd day, 0 = non-treated, 100 = complete kill
[6] = test system: wheat; test: Test Example 1: foliage treatment, upland pot test; type: in vivo, Triticum spp.; settings: crop, active ingredient 500 g/ha, observed 18th to 23rd day, 0 = non-treated, 100 = complete kill
Summary of the method: as §2

[7] = test system: soybean; test: Test Example 2: soil surface treatment, upland pot test; type: in vivo, Glycine max Merr.; settings: observed 20th to 28th day
Summary of the method: as §1

[8] = test system: prickly sida; test: Test Example 1: foliage treatment, upland pot test; type: in vivo, Sida spinosa L.; settings: active ingredient 500 g/ha, observed 18th to 23rd day, 0 = non-treated, 100 = complete kill
[9] = test system: crabgrass; test: Test Example 1: foliage treatment, upland pot test; type: in vivo, Digitaria sanguinalis L.; settings: active ingredient 500 g/ha, observed 18th to 23rd day, 0 = non-treated, 100 = complete kill
[10] = test system: corn; test: Test Example 1: foliage treatment, upland pot test; type: in vivo, Zea mays L.; settings: crop, active ingredient 500 g/ha, observed 18th to 23rd day, 0 = non-treated, 100 = complete kill
Summary of the method: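 In this upland pot foliage test, corn plants at 2.1 to 3.2 leaf stages were sprayed by a small size sprayer. The spray was a conventionally formulated wettable powder or emulsifiable concentrate weighed to a set active ingredient amount, diluted in water at 500 L/ha, plus 0.1% (v/v) agricultural spreader. Visual assessment on days 18 to 23 gave growth controlling degree (%), where 0 equals untreated and 100 means complete kill.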

[11] = test system: japanese bulrush; test: Test Example 3: paddy pot test, application under submerged conditions; type: in vivo, Scirpus juncoides; settings: submerged application at 0.5 leaf stage, visually observed 14 days after application, 0 = non-treated, 100 = complete kill
Summary of the method: (§3)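 Visual growth-control rating (0 = untreated, 100 = complete kill) 14 days after treatment. The formulated compound, as a diluted wettable powder or emulsifiable concentrate, went into 3–4 cm flood water at a predetermined active-ingredient dose once the weeds reached 0.5 leaf stage (wapato: primary leaf stage).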

[12] = test system: green foxtail; test: Test Example 2: soil surface treatment, upland pot test; type: in vivo, Setaria viridis L.; settings: observed 20th to 28th day
Summary of the method: as §1

[13] = test system: velvetleaf; test: as above; type: in vivo, Abutilon theophrasti MEDIC.; settings: observed 20th to 28th day
Summary of the method: as §1

[14] = test system: soybean; test: Test Example 1: foliage treatment, upland pot test; type: in vivo, Glycine max Merr.; settings: crop, active ingredient 500 g/ha, observed 18th to 23rd day, 0 = non-treated, 100 = complete kill
Summary of the method: as §2

[15] = test system: barnyardgrass; test: Test Example 2: soil surface treatment, upland pot test; type: in vivo, Echinochloa crus-galli L.; settings: observed 20th to 28th day
Summary of the method: as §1

[16] = test system: green foxtail; test: Test Example 1: foliage treatment, upland pot test; type: in vivo, Setaria viridis L.; settings: active ingredient 500 g/ha, observed 18th to 23rd day, 0 = non-treated, 100 = complete kill
[17] = test system: barnyardgrass; test: Test Example 1: foliage treatment, upland pot test; type: in vivo, Echinochloa crus-galli L.; settings: active ingredient 500 g/ha, observed 18th to 23rd day, 0 = non-treated, 100 = complete kill
Summary of the method: as §2

[18] = test system: barnyardgrass; test: Test Example 3: paddy pot test, application under submerged conditions; type: in vivo, Echinochloa crus-galli L.; settings: submerged application at 0.5 leaf stage, visually observed 14 days after application, 0 = non-treated, 100 = complete kill
Summary of the method: as §3

[19] = test system: redroot pigweed; test: Test Example 1: foliage treatment, upland pot test; type: in vivo, Amaranthus retroflexus L.; settings: active ingredient 500 g/ha, observed 18th to 23rd day, 0 = non-treated, 100 = complete kill
[20] = test system: rice (var. Nihonbare); test: Test Example 3: paddy pot test, transplanted rice; type: in vivo, Oryza sativa L.; settings: applied 4th day after transplantation, visually observed 21st day after application, 0 = non-treated, 100 = complete kill
Summary of the method: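 Rice (var. Nihonbare) at 2 leaf stage transplanted 3 cm deep into puddled paddy soil under 3–4 cm flooding; on day 4 after transplanting, diluted wettable powder or emulsifiable concentrate applied by pipette under submerged conditions at a set active-ingredient dose. Growth scored visually 21 days after application, 0 (untreated) to 100 (complete kill) %.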

[21] = test system: wheat; test: Test Example 2: soil surface treatment, upland pot test; type: in vivo, Triticum spp.; settings: observed 20th to 28th day
Summary of the method: as §1

[22] = test system: japanese ribbon wapato; test: Test Example 3: paddy pot test, application under submerged conditions; type: in vivo, Sagittaria pygniaea; settings: active ingredient 250 g/ha; submerged application at primary leaf stage; visually observed 14 days after application; 0 = non-treated, 100 = complete kill
Summary of the method: as §3

[23] = test system: corn; test: Test Example 2: soil surface treatment, upland pot test; type: in vivo, Zea mays L.; settings: observed 20th to 28th day
Summary of the method: as §1

[24] = test system: crabgrass; test: as above; type: in vivo, Digitaria sanguinalis L.; settings: observed 20th to 28th day
Summary of the method: as §1

| SMILES | Growth controlling degree (%) Rice [3] | Growth controlling degree (%) Velvetleaf [5] | Growth controlling degree (%) wheat [6] | Growth controlling degree (%) Prickly sida [8] | Growth controlling degree (%) Crabgrass [9] | Growth controlling degree (%) Corn [10] | Growth controlling degree (%) Japanese bulrush ([11]; active ingredient 250 g/ha) | Growth controlling degree (%) Soybean [14] | Growth controlling degree (%) Green foxtail [16] | Growth controlling degree (%) Barnyardgrass [17] | Growth controlling degree (%) Barnyardgrass ([18]; active ingredient 250 g/ha) | Growth controlling degree (%) Redroot pigweed [19] | Growth controlling degree (%) Rice ([20]; active ingredient 250 g/ha) | Growth controlling degree (%) Redroot pigweed ([1]; active ingredient 500 g/ha) | Growth controlling degree (%) Prickly sida ([2]; active ingredient 500 g/ha) | Growth controlling degree (%) Rice ([4]; active ingredient 500 g/ha) | Growth controlling degree (%) Soyabean ([7]; active ingredient 500 g/ha) | Growth controlling degree (%) Green foxtail ([12]; active ingredient 500 g/ha) | Growth controlling degree (%) Velvetleaf ([13]; active ingredient 500 g/ha) | Growth controlling degree (%) Barnyardgrass ([15]; active ingredient 500 g/ha) | also measured |
| --- | --- | --- | --- | --- | --- | --- | --- | --- | --- | --- | --- | --- | --- | --- | --- | --- | --- | --- | --- | --- | --- |
| CC(C)C(c1cnccc1C(F)(F)F)N(C)C(=O)C(Br)C(C)(C)C (stereo not shown) [I-196] | 40% | 10% | 40% | 70% | 60% | 10% | 100% | 40% | 40% | 60% | 98% | 50% | 10% |  |  |  |  |  |  |  | Growth controlling degree (%) Redroot pigweed ([1]; active ingredient 250 g/ha): 60%; Growth controlling degree (%) Prickly sida ([2]; active ingredient 250 g/ha): 60%; Growth controlling degree (%) Rice ([4]; active ingredient 250 g/ha): 30%; Growth controlling degree (%) Soyabean ([7]; active ingredient 250 g/ha): 10%; Growth controlling degree (%) Green foxtail ([12]; active ingredient 250 g/ha): 95%; Growth controlling degree (%) Velvetleaf ([13]; active ingredient 250 g/ha): 30%; Growth controlling degree (%) Barnyardgrass ([15]; active ingredient 250 g/ha): 70%; Growth controlling degree (%) wheat ([21]; active ingredient 250 g/ha): 10%; Growth controlling degree (%) Japanese ribbon wapato [22]: 50%; Growth controlling degree (%) Corn ([23]; active ingredient 250 g/ha): 30%; Growth controlling degree (%) Crabgrass ([24]; active ingredient 250 g/ha): 90% |
| Cc1ccc(OC(C)C(=O)N(C)C(c2cnccc2C(F)(F)F)C(C)C)cc1 (mixture of isomers) [I-131] | 30% | 50% | 50% | 70% | 80% | 50% | 95% | 80% | 70% | 70% | 100% | 70% | 10% | 30% | 60% | 20% | 40% | 100% | 0% | 100% | Growth controlling degree (%) wheat ([21]; active ingredient 500 g/ha): 20%; Growth controlling degree (%) Corn ([23]; active ingredient 500 g/ha): 10%; Growth controlling degree (%) Crabgrass ([24]; active ingredient 500 g/ha): 100% |
| CC(C)C(c1cnccc1C(F)(F)F)N(C)C(=O)Cc1ccc(OC(F)F)cc1 (racemic) [I-128] | 50% | 80% | 30% | 80% | 95% | 70% | 90% | 80% | 50% | 70% | 100% | 60% | 0% | 30% | 80% | 40% | 20% | 100% | 60% | 100% | Growth controlling degree (%) wheat ([21]; active ingredient 500 g/ha): 30%; Growth controlling degree (%) Corn ([23]; active ingredient 500 g/ha): 50%; Growth controlling degree (%) Crabgrass ([24]; active ingredient 500 g/ha): 100% |
| Cc1ccc(S(=O)(=O)N(C)C(c2cnccc2C(F)(F)F)C(C)C)cc1 (racemic) [I-130] | 40% | 70% | 10% | 80% | 80% | 70% |  | 40% | 60% | 70% |  | 70% |  |  |  |  |  |  |  |  | Growth controlling degree (%) Redroot pigweed ([1]; active ingredient 250 g/ha): 10%; Growth controlling degree (%) Prickly sida ([2]; active ingredient 250 g/ha): 50%; Growth controlling degree (%) Rice ([4]; active ingredient 250 g/ha): 40%; Growth controlling degree (%) Soyabean ([7]; active ingredient 250 g/ha): 10%; Growth controlling degree (%) Japanese bulrush ([11]; active ingredient 125 g/ha): 70%; Growth controlling degree (%) Green foxtail ([12]; active ingredient 250 g/ha): 95%; Growth controlling degree (%) Velvetleaf ([13]; active ingredient 250 g/ha): 10%; Growth controlling degree (%) Barnyardgrass ([15]; active ingredient 250 g/ha): 100%; Growth controlling degree (%) Barnyardgrass ([18]; active ingredient 125 g/ha): 100%; Growth controlling degree (%) Rice ([20]; active ingredient 125 g/ha): 10%; Growth controlling degree (%) wheat ([21]; active ingredient 250 g/ha): 20%; Growth controlling degree (%) Corn ([23]; active ingredient 250 g/ha): 20%; Growth controlling degree (%) Crabgrass ([24]; active ingredient 250 g/ha): 98% |
| CC(C)C(c1cnccc1C(F)(F)F)N(C)S(=O)(=O)c1ccc(F)cc1 (racemic) [I-124] | 40% | 70% | 60% | 80% | 95% | 60% | 70% | 80% | 70% | 80% | 100% | 50% | 0% | 60% | 90% | 20% | 30% | 100% | 80% | 100% | Growth controlling degree (%) wheat ([21]; active ingredient 500 g/ha): 10%; Growth controlling degree (%) Corn ([23]; active ingredient 500 g/ha): 20%; Growth controlling degree (%) Crabgrass ([24]; active ingredient 500 g/ha): 100% |
| CC(C)C(c1cnccc1C(F)(F)F)N(C)C(=O)CC1Cc2ccccc2C1 (stereo not shown) [I-191] | 20% | 80% | 10% | 80% | 70% | 60% |  | 50% | 80% | 70% |  | 70% |  | 50% | 10% | 20% | 30% | 100% | 10% | 100% | Growth controlling degree (%) Japanese bulrush ([11]; active ingredient 500 g/ha): 90%; Growth controlling degree (%) Barnyardgrass ([18]; active ingredient 500 g/ha): 100%; Growth controlling degree (%) Rice ([20]; active ingredient 500 g/ha): 20%; Growth controlling degree (%) wheat ([21]; active ingredient 500 g/ha): 20%; Growth controlling degree (%) Corn ([23]; active ingredient 500 g/ha): 40%; Growth controlling degree (%) Crabgrass ([24]; active ingredient 500 g/ha): 98% |
